Laboratory results as given in publication PMC11172314, “Towards Enhanced Tunability of Aqueous Biphasic Systems: Furthering the Grasp of Fluorinated Ionic Liquids in the Purification of Proteins” (International Journal of Molecular Sciences, 2024).
Read-outs that look alike come from different tables or passages of the source.

Assays:
[1] = biological target: T1, FITC-Lys (lysozyme) (Gallus gallus, UniProt P00698); test: Microscale thermophoresis (MST) binding of ABS phase-forming components to FITC-labeled lysozyme; set-up: species or system chicken; conditions: FITC-Lys 0.41 μM, 25 °C
T1 construct: Lyophilized lysozyme from chicken egg white, ≥90% purity; purchased Millipore (Darmstadt, Germany); host or cells: chicken egg white (natural source)
Experimental: Usually, in the labeling process, the position of dye is statistically distributed, and one amine per protein is labeled. […] The four ABS phase-forming components, [ N1112(OH) ][H2PO4] […] (FILs), and [C4C1Im][CF3SO3] […] In each run of MST, a maximum concentration of ligand was selected and consecutively diluted in sixteen capillaries.
Binding studies were conducted through microscale thermophoresis measurements of dye-labeled lysozyme. […] MST tests were conducted in a monolith NT.115 (blue/red) in accordance with the Nano Temper Technologies methodology. Medium MST power and 20% LED power (nano-blue) were set as the instrument’s default settings. For each and every MST measurement, PBS buffer was used. […] For each ligand, a series of 16 1:1 dilutions was prepared using the same buffer, varying the starting ligand concentration from 15 to 400 mM. MST traces were recorded using the standard parameters: 5 s MST power off, 30 s MST power on, and 5 s MST power off. Three independently conducted pipetted experiments’ data were examined using NanoTemper Technologies’ MO. Affinity Analysis program, version 2.3.

[2] = biological target: T2, lysozyme (Lys) (Gallus gallus, UniProt P00698); test: Far-UV CD secondary structure content of lysozyme (K2D deconvolution); set-up: species or system chicken; Lys α-helix content / Lys β-sheet content / Lys random coil content / α-helix content / β-sheet content / Random coil content: unit not given here; conditions: 25 °C; for Lys random coil content / Lys α-helix content / Lys β-sheet content: 1.0 mg/ml Lys
T2 construct: Lyophilized lysozyme from chicken egg white, ≥90% purity; purchased Millipore (Darmstadt, Germany); host or cells: chicken egg white (natural source)
Experimental: Circular dichroism (CD) spectroscopy is broadly applied to assess the secondary structure of proteins because different structural elements have characteristic CD spectra. […] For [C4C1Im][CF3SO3] (mere fluoro-containing IL), the structural content was estimated for the concentration range (0.1–200 mM). […] FIL and [ N1112(OH) ][H2PO4] […] No substantial protein structural modification upon the ABS phase-forming component addition was verified.
Circular dichroism (CD) spectra were collected in a 10 mm quartz cuvette and a Chirascan spectropolarimeter (Applied Photophysics, Leatherhead, UK) at room temperature. All CD spectra were recorded in far-UV 190 to 260 nm at scan rates of 50 nm/min, 4 accumulations, and a response time of 3 s. Each CD experiment involved the acquisition and combination of two distinct duplicates. […] Spectral deconvolution was carried out with Dichroweb using the K2D algorithm.

[3] = biological target: T2, lysozyme (Lys); test: DSC thermal stability (Tm, ΔH) of lysozyme in water, component solutions and ABS phases; set-up: species or system chicken; conditions: for Lys Tm / Lys ∆H: 1.0 mg/mL Lys
Description: Differential scanning calorimetry (DSC) measurements (Section 3) were used to determine the melting temperature ( Tm ) and enthalpy ( Δ H) of lysozyme, at which both the folded and unfolded states coexist at equilibrium. DSC outputs, thermal transitions at the nanoscale level, allow to analyze alterations on proteins structure and stability, providing sharp perceptions of the factors affecting stability, as well as of the folding and unfolding processes. […] (DSC curve depicted in Figure S16 of Supplementary Materials).
FIL (BP#8, BP#10, BP#11, and BP#12). […] For the system based on [C4C1Im][CF3SO3]
The thermal stability of lysozyme was analyzed in water, ABS phase-forming compounds aqueous solutions, and partition ABS phases. […] Partition lysozyme on each phase from the prepared biphasic points as well as recovered protein from the FIL-rich phase were also addressed for a selection of studied systems listed in Table 1. We acquired thermograms using a TA^TM Nano DSC from TA Instruments. All scans were conducted in a 300 μ L capillary cell through a temperature ramp from 20 to 90 °C at a heating rate of 1 °C/min and 3 atm pressure. All samples were degassed for 7 min at 20 °C, with the exception of FIL-containing samples owing to their surfactant properties. After subtracting the polynomial fit baselines, raw thermogram curve data were fitted with the TwoStateScaled model using NanoAnalyze TA Instruments software, version 3.12, to determine the protein thermal transition temperatures in each sample. During nanoDSC scans, Δ H and Δ S were obtained and utilized to determine Δ G ( Δ G = Δ H − T Δ S).

[4] = set-up: method as in earlier work; conditions: aqueous solution, 25 °C, conductometry; ref 21 (supplement ref 1); cited from earlier work
[5] = biological target: T2, lysozyme (Lys); test: Intrinsic (tryptophan) fluorescence of lysozyme; set-up: species or system chicken; conditions: 0.2 mg/mL Lys, excitation 295 nm, component 0.1–800 mM, 25 °C
Description: (FIL), [C4C1Im][CF3SO3] (mere fluoro-containing IL), and [ N1112(OH) ][H2PO4] (globular protein stabilizer). […] Even though large changes in protein conformation can modify the intensity of tyrosine and phenylalanine fluorescence signals, their low extinction coefficients and quantum yields, as well as their relative lower sensitivity to environmental changes, make them a less appealing candidate. Tryptophan is frequently found concealed in the hydrophobic core of proteins due to its aromatic nature. […] The tryptophan release energy is particularly sensitive to the polarity (and dynamics) of the environment because the excited-state dipole moment is quite large. Reactions to denaturation, substrate binding, subunit association, and conformational transitions create variations in the tryptophan emission spectra. The spectrum shift generally known as blue shift, a shift of the maximum emission towards smaller wavelengths, denotes that the aromatic residue is buried in the native structure of the protein [67]. […] Furthermore, the amount of exposure of the fluorophores to the solvent is associated with the increase or decrease in the intensity of the emission spectrum. […] [C4C1Im][CF3SO3] and [ N1112(OH) ][H2PO4] […] Variations in lysozyme spectra are caused by ligand-induced changes in the microenvironment of tryptophan residues, either by shifting the maximum peak wavelength (blue or red shift) or by altering peak intensities. These changes can be used as a measure of the effect of the ABS phase-forming components on protein folding and unfolding.
Intrinsic fluorescence spectroscopy measurements of lysozyme’s tryptophan residues were carried out on a Spex Horiba Jobyin Yvon spectrofluorometer (HORIBA Jobin Yvon, France) using a 10 mm path length quartz cuvette. […] The excitation and emission slit widths of 2 nm were used for all the measurements. Maximum fluorescence values were attained as the average of three measurements.

[6] = cited from earlier work
[7] = biological target: T2, lysozyme (Lys); set-up: method as in PMID 28478279, PMID 17406547; conditions: cited from earlier work
[8] = max. conc. (first capillary) in monomer range: below 1st CAC for FILs, ]0, 100] mM for non-aggregating ligands

T2 sequence (P00698 19-147): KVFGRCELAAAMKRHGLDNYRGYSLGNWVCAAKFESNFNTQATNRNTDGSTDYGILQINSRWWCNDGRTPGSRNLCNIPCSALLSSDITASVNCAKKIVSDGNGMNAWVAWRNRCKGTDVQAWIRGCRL
T1 sequence (P00698 19-147): as above

C[N+](C)(C)CCO.O=S(=O)([O-])C(F)(F)C(F)(F)C(F)(F)C(F)(F)F [[N1112(OH) ][C4F9SO3]]
Kd [1, 8]: no binding detected | Lys random coil content ([2]; 0.1 mM component): 0.57 | Lys α-helix content ([2]; 0.1 mM component): 0.28 | Lys β-sheet content ([2]; 0.1 mM component): 0.15 | Lys random coil content ([2]; 1 mM component): 0.58 | Lys α-helix content ([2]; 1 mM component): 0.28 | Lys β-sheet content ([2]; 1 mM component): 0.14 | Lys random coil content ([2]; 5 mM component): 0.56 | Lys α-helix content ([2]; 5 mM component): 0.25 | Lys β-sheet content ([2]; 5 mM component): 0.19 | Lys random coil content ([2]; 25 mM component): 0.57 | Lys α-helix content ([2]; 25 mM component): 0.24 | Lys β-sheet content ([2]; 25 mM component): 0.2 | Lys Tm ([3]; 0.1 mM component in water): 77.15 °C | Lys ∆H ([3]; 0.1 mM component in water): 136.3 kcal/mol | Lys Tm ([3]; 1 mM component in water): 76.65 °C | Lys ∆H ([3]; 1 mM component in water): 127.7 kcal/mol | Lys Tm ([3]; 5 mM component in water): 75.19 °C | Lys ∆H ([3]; 5 mM component in water): 123 kcal/mol | Lys Tm ([3]; 10 mM component in water): 74.28 °C | Lys ∆H ([3]; 10 mM component in water): 134 kcal/mol | Lys Tm ([3]; 25 mM component in water, several transitions listed singly, listed as [N1112(OH)][C4F9SO3]): 83.98 °C | 1st CAC [4]: 16.02 mM | 2nd CAC [4]: 35.17 mM | 3rd CAC [4]: 185.65 mM

O=S(=O)(O)C(F)(F)C(F)(F)C(F)(F)C(F)(F)F [[N1112(OH) ][C4F9SO3]]
Kd ([1]; max. conc. (first capillary) in 1st CAC range ([14.4, 34.48[ or [16.02, 35.17[ mM), read-out: Kd): 6.05 ± 1.67 mM | Kd ([1]; max. conc. (first capillary) in 2nd CAC range ([34.48, 76.54[ or [35.17, 185.65[ mM), read-out: Kd): 6.25 ± 1.47 mM

C[N+](C)(C)CCO.C[N+](C)(C)CCO.O=P([O-])(O)O.O=P([O-])(O)O [[N1112(OH) ][H2PO4], Choline ((2-hydroxyethyl)trimethylammonium) dihydrogen phosphate]
Kd [1, 8]: no binding detected | Lys fluorescence emission intensity with increasing component concentration [5]: reduction in fluorescence emission intensity | Lys maximum emission wavelength with increasing component concentration [5]: remains constant | Lys random coil content ([2]; 0.1 mM component): 0.56 | Lys α-helix content ([2]; 0.1 mM component): 0.29 | Lys β-sheet content ([2]; 0.1 mM component): 0.15 | Lys random coil content ([2]; 1 mM component): 0.58 | Lys α-helix content ([2]; 1 mM component): 0.28 | Lys β-sheet content ([2]; 1 mM component): 0.14 | Lys random coil content ([2]; 5 mM component): 0.56 | Lys α-helix content ([2]; 5 mM component): 0.25 | Lys β-sheet content ([2]; 5 mM component): 0.18 | Lys random coil content ([2]; 25 mM component): 0.57 | Lys α-helix content ([2]; 25 mM component): 0.24 | Lys β-sheet content ([2]; 25 mM component): 0.2 | Lys Tm ([3]; 0.1 mM component in water): 77.10 °C | Lys ∆H ([3]; 0.1 mM component in water): 134.8 kcal/mol | Lys Tm ([3]; 1 mM component in water): 77.11 °C | Lys ∆H ([3]; 1 mM component in water): 132.5 kcal/mol | Lys Tm ([3]; 5 mM component in water): 76.70 °C | Lys ∆H ([3]; 5 mM component in water): 142.8 kcal/mol | Lys Tm ([3]; 10 mM component in water): 77.06 °C | Lys ∆H ([3]; 10 mM component in water): 137.8 kcal/mol

Lys: lysozyme from chicken egg white (muramidase, EC 3.2.1.17), 14 kDa globular protein used as protein model
isoelectric point [6]: around 11.0 | β-strand, analysis based on various methods [7]: ≈ 19% | α-helix, secondary structure prediction ([2]; 1.0 mg/mL Lys in water): 29% | β-strand, secondary structure prediction ([2]; 1.0 mg/mL Lys in water): 14% | Random coil content ([2]; 1.0 mg/ml Lys in water (0 mM)): 0.57 | α-helix content ([2]; 1.0 mg/ml Lys in water (0 mM)): 0.29 | β-sheet content ([2]; 1.0 mg/ml Lys in water (0 mM)): 0.14 | Tm ([3]; 0.5 mg/ml Lys in water): 69.26±0.031 °C | ∆H ([3]; 1.0 mg/mL Lys in water): 118 kcal/mol | Tm ([3]; 3.0 mg/ml Lys in water): 73.85±0.005 °C
